# From US7863265B2, “2-azetidinone derivatives and their use as cholesterol absorption inhibitors for the treatment of hyperlipidaemia” (AstraZeneca AB, priority 2005, dated 2011)
# What was measured:
# [1] = system: 14C-cholesterol absorption; assay: In vivo testing of cholesterol absorption inhibitors (A); conditions: 0.2 μmol/kg by gavage, procedure A, C57BL/6 female mice
# Experimental: In Vivo Testing of Cholesterol Absorption Inhibitors (A)
# C57BL/6 female mice were maintained on regular chow diet and housed in individual cages to collect faeces. Mice were fasted for 3 hours and then gavaged with vehicle or compound. Half an hour later the mice were gavaged with radiolabelled cholesterol. Six hours after the ^14C-cholesterol gavage blood samples were taken via the tail and plasma prepared to determine how much cholesterol were absorbed. 24 hours after the gavage of ^14C-cholesterol the mice were bled and plasma were prepared for analysis. Faeces were collected for 24 hours to assess absorption efficiency.
# [2] = Absorption in a Caco-2 cells model; type: in vitro ADME; conditions: human
# Experimental: (§1) Absorption of the compounds of formula (I) was tested in a Caco-2 cells model (Gastroenterology 1989, 96, 736): […]
# [3] = system: Caco-2 cells; assay: Absorption in a Caco-2 cells model; type: in vitro ADME
# Experimental: as §1
Papp [2],Caco value [3],Structure (SMILES),inhibition of 14C-cholesterol absorption [1]
0.04 ×10⁻⁶ cm/s,,"O=C(COc1ccc([C@@H]2[C@@H](SCC(O)c3ccc(F)cc3)C(=O)N2c2ccc(F)cc2)cc1)NCC(=O)N[C@H](CC1CCCCC1)C(=O)O (single isomer, unassigned) [Example 4, N-{[4-((2R,3R)-1-(4-fluorophenyl)-3-{[(2R or S)-2-(4-fluorophenyl)-2-hydroxyethyl]thio}-4-oxoazetidin-2-yl)phenoxy]acetyl}glycyl-3-cyclohexyl-D-alanine]",75%
,,"CC(C)(c1ccccc1)[C@@H](NC(=O)CNC(=O)COc1ccc([C@@H]2[C@@H](SCC(O)c3ccc(F)cc3)C(=O)N2c2ccc(F)cc2)cc1)C(=O)O (single isomer, unassigned) [Example 5, N-{[4-((2R,3R)-1-(4-fluorophenyl)-3-{[(2R or S)-2-(4-fluorophenyl)-2-hydroxyethyl]thio}-4-oxoazetidin-2-yl)phenoxy]acetyl}glycyl-β,β-dimethyl-D-phenylalanine]",78%
,0.02 ×10⁻⁶ cm/s,"CC(C)(C)[C@@H](NC(=O)CNC(=O)COc1ccc([C@@H]2[C@@H](SC[C@H](O)c3ccc(F)cc3)C(=O)N2c2ccc(F)cc2)cc1)C(=O)O [Example 3, N-{[4-((2R,3R)-1-(4-fluorophenyl)-3-{[(2R or 6)-2-(4-fluorophenyl)-2-hydroxyethyl]thio}-4-oxoazetidin-2-yl)phenoxy]acetyl}glycyl-3-methyl-D-valine]",73%
